From the NIST ThermoML archive (doi:10.1016/j.jct.2016.05.015)

Assay: xn = mol fraction of the nth substance listed
Details: 100 kPa, Liquid; for viscosity: Capillary tube (Ostwald / Ubbelohde) method; for speed of sound: Frequency=2 MHz, Linear variable-path acoustic interferometer; for mass density: Vibrating tube method

Nc1cccc(Cl)c1 [3-chlorobenzenamine] + Clc1ccccc1
Details	mass density [kg/m3]	speed of sound [m/s]	viscosity [mPa·s]
303.15 K, x1 = 0.0895	1106.11	1265.6	1.126
303.15 K, x1 = 0.1802	1116.69	1284.1	1.516
303.15 K, x1 = 0.2935	1129.74	1308.9	1.975
303.15 K, x1 = 0.3821	1139.77	1329.6	2.317
303.15 K, x1 = 0.4956	1152.34	1358.1	2.738
303.15 K, x1 = 0.5823	1161.75	1381.5	3.046
303.15 K, x1 = 0.6923	1173.48	1413.3	3.417
303.15 K, x1 = 0.8012	1184.88	1447.5	3.756
303.15 K, x1 = 0.8856	1193.58	1476	3.991
303.15 K, x1 = 1	1205.32	1517.5	4.255
308.15 K, x1 = 0.0895	1100.43	1243.5	1.059
308.15 K, x1 = 0.1802	1111.15	1262.3	1.418
308.15 K, x1 = 0.2935	1124.32	1287.4	1.835
308.15 K, x1 = 0.3821	1134.43	1308.4	2.145
308.15 K, x1 = 0.4956	1147.15	1337.4	2.522
308.15 K, x1 = 0.5823	1156.68	1361.3	2.797
308.15 K, x1 = 0.6923	1168.55	1393.9	3.126
308.15 K, x1 = 0.8012	1180.09	1429	3.421
308.15 K, x1 = 0.8856	1188.91	1458.3	3.623
308.15 K, x1 = 1	1200.75	1501.2	3.842
313.15 K, x1 = 0.0895	1095.5	1223.6	0.9961
313.15 K, x1 = 0.1802	1106.27	1242.2	1.322
313.15 K, x1 = 0.2935	1119.45	1267.1	1.697
313.15 K, x1 = 0.3821	1129.56	1288	1.972
313.15 K, x1 = 0.4956	1142.29	1316.8	2.306
313.15 K, x1 = 0.5823	1151.83	1340.5	2.548
313.15 K, x1 = 0.6923	1163.77	1373.1	2.839
313.15 K, x1 = 0.8012	1175.35	1408.2	3.097
313.15 K, x1 = 0.8856	1184.21	1437.5	3.264
313.15 K, x1 = 1	1196.02	1480.3	3.43
318.15 K, x1 = 0.0895	1090.31	1198.7	0.9397
318.15 K, x1 = 0.1802	1101.12	1217.7	1.238
318.15 K, x1 = 0.2935	1114.34	1243.1	1.57
318.15 K, x1 = 0.3821	1124.49	1264.5	1.808
318.15 K, x1 = 0.4956	1137.26	1294.2	2.098
318.15 K, x1 = 0.5823	1146.85	1318.8	2.308
318.15 K, x1 = 0.6923	1158.87	1352.6	2.557
318.15 K, x1 = 0.8012	1170.53	1389.2	2.773
318.15 K, x1 = 0.8856	1179.42	1419.9	2.908
318.15 K, x1 = 1	1191.25	1464.8	3.022
